# Test results published in US11980596B2 (priority 2017, dated 2024).
# What was measured:
# [1] = system: patients with treatment-resistant depression (TRD); test: Adverse events (Example 7); format: in vivo, human
# Description: Adverse events were monitored throughout the study. Other safety assessments (i.e., laboratory tests, vital signs, physical examination) were performed at pre-specified time points. Vital signs, the Clinician Administered Dissociative States Scale (CADSS; Bremner, “Measurement of dissociative states with the clinician-administered dissociative states scale (CADSS)”, J. Traumatic Stress, 1998, 11(1):125-136), and the 4-item positive symptom subscale from the Brief Psychiatric Rating Scale (BPRS; Overall, “The Brief Psychiatric Rating Scale. Psychological Reports”, 1962, 10:799-812) were assessed pre-dose, at 40 minutes, and 2 hours post-dose.
# Safety data were analyzed in Period 1, Period 2, double-blind, and open-label data sets, for all subjects receiving at least 1 dose of study medication.
# [2] = system: rat; test: 2-year rat carcinogenicity study; format: in vivo; conditions: once-daily intranasal 4.5, 15 and 45 mg/kg/day; 2 years
# [3] = system: elderly subjects with TRD; conditions: post dose
# Description: The Clinician Administered Dissociative States Scale (CADSS) was measured prior to the start of each dose, at 40 minutes, and 1.5 hours postdose.
# [4] = double-blind, esketamine 84 mg, N = 17
# [5] = double-blind, esketamine Total, N = 56
compound,measurement,setting,value
"CN[C@]1(c2ccccc2Cl)CCCCC1=O [esketamine, (S)-2-(2-chlorophenyl)-2-(methylamino)cyclohexanone]","Feeling abnormal, % of participants",[1]; [4],(6) %
same,"Feeling abnormal, number of participants",[1]; [4],1
same,"Headache, % of participants",[1]; [4],(18) %
same,"Headache, number of participants",[1]; [4],3
same,"Hypersomnia, number of participants",[1]; [4],0
same,"Hypertension, % of participants",[1]; [4],(6) %
same,"Hypertension, number of participants",[1]; [4],1
same,"Hypoesthesia oral, % of participants",[1]; [4],(12) %
same,"Hypoesthesia oral, number of participants",[1]; [4],2
same,"Insomnia, number of participants",[1]; [4],0
same,"Nasal discomfort, % of participants",[1]; [4],(6) %
same,"Nasal discomfort, number of participants",[1]; [4],1
same,"Nausea, % of participants",[1]; [4],(24) %
same,"Nausea, number of participants",[1]; [4],4
same,"Oropharyngeal pain, % of participants",[1]; [4],(12) %
same,"Oropharyngeal pain, number of participants",[1]; [4],2
same,"Polyuria, number of participants",[1]; [4],0
same,"Sedation, % of participants",[1]; [4],(6) %
same,"Sedation, number of participants",[1]; [4],1
same,"Throat irritation, % of participants",[1]; [4],(12) %
same,"Throat irritation, number of participants",[1]; [4],2
same,"Total with events, % of participants",[1]; [4],(88) %
same,"Total with events, number of participants",[1]; [4],15
same,"Tunnel vision, % of participants",[1]; [4],(12) %
same,"Tunnel vision, number of participants",[1]; [4],2
same,"Vertigo, % of participants",[1]; [4],(6) %
same,"Vertigo, number of participants",[1]; [4],1
same,"Vision blurred, % of participants",[1]; [4],(12) %
same,"Vision blurred, number of participants",[1]; [4],2
same,"Dissociation, % of participants",[1]; [5],(20) %
same,"Dissociation, number of participants",[1]; [5],11
same,"Dissociative disorder, % of participants",[1]; [5],(13) %
same,"Dissociative disorder, number of participants",[1]; [5],7
same,"Dizziness, % of participants",[1]; [5],(36) %
same,"Dizziness, number of participants",[1]; [5],20
same,"Dysgeusia, % of participants",[1]; [5],(18) %
same,"Dysgeusia, number of participants",[1]; [5],10
same,"Feeling abnormal, % of participants",[1]; [5],(7) %
same,"Feeling abnormal, number of participants",[1]; [5],4
same,"Headache, % of participants",[1]; [5],(21) %
same,"Headache, number of participants",[1]; [5],12
same,"Hypersomnia, % of participants",[1]; [5],(4) %
same,"Hypersomnia, number of participants",[1]; [5],2
same,"Hypertension, % of participants",[1]; [5],(5) %
same,"Hypertension, number of participants",[1]; [5],3
same,"Hypoesthesia oral, % of participants",[1]; [5],(13) %
same,"Hypoesthesia oral, number of participants",[1]; [5],7
same,"Insomnia, % of participants",[1]; [5],(4) %
same,"Insomnia, number of participants",[1]; [5],2
same,"Nasal discomfort, % of participants",[1]; [5],(5) %
same,"Nasal discomfort, number of participants",[1]; [5],3
same,"Nausea, % of participants",[1]; [5],(18) %
same,"Nausea, number of participants",[1]; [5],10
same,"Oropharyngeal pain, % of participants",[1]; [5],(5) %
same,"Oropharyngeal pain, number of participants",[1]; [5],3
same,"Polyuria, % of participants",[1]; [5],(4) %
same,"Polyuria, number of participants",[1]; [5],2
same,"Sedation, % of participants",[1]; [5],(7) %
same,"Sedation, number of participants",[1]; [5],4
same,"Throat irritation, % of participants",[1]; [5],(5) %
same,"Throat irritation, number of participants",[1]; [5],3
same,"Total with events, % of participants",[1]; [5],(75) %
same,"Total with events, number of participants",[1]; [5],42
same,"Tunnel vision, % of participants",[1]; [5],(4) %
same,"Tunnel vision, number of participants",[1]; [5],2
same,"Vertigo, % of participants",[1]; [5],(7) %
same,"Vertigo, number of participants",[1]; [5],4
same,"Vision blurred, % of participants",[1]; [5],(4) %
same,"Vision blurred, number of participants",[1]; [5],2
same,Adverse event: dizziness,[1]; open-label phase,38.6%
same,Adverse event: dysgeusia,[1]; open-label phase,22.8%
same,Adverse event: headache,[1]; open-label phase,14.0%
same,Adverse event: nausea,[1]; open-label phase,15.8%
same,Adverse event: sedation,[1]; open-label phase,10.5%
same,Incidence of tumors,[2],did not increase the incidence of tumors
same,Dissociative and perceptual change symptoms (CADSS) resolved by,[3],≤ 1.5 h
